Source: US20210363233A1, “TREATMENT OF A DISEASE OF THE GASTROINTESTINAL TRACT WITH AN IL-12/IL-23 INHIBITOR” (Progenity, Inc., priority 2018, published 2021)
Structures can show the parent of a compound that is named as a salt. Where two headings read alike, the source gives them in different places.

Legend:
[1] = Tissue, plasma and GI content pharmacokinetics of tacrolimus, oral vs intra-cecal ingestible device delivery (Example 10); assay type: in vivo, Yorkshire-Cross farm swine; conditions: female, Yorkshire-Cross, pig
Protocol: The primary objective of this study was to compare the tissue, plasma, rectal sample, and GI content pharmacokinetics of tacrolimus through oral versus intra-cecal ingestible device delivery in normal Yorkshire-Cross farm swine.
(§1) No further randomization procedure was employed.
Animals in Group 1 received an ingestible device containing 0.8 mL of vehicle solution (80% alcohol, 20% HCO-60). Animals in Group 2 received orally […] liquid formulation of tacrolimus at 4 mg/0.8 mL per animal (Prograf: 5 mg/mL). Animals in Group 3 received intra-cecally an ingestible device containing tacrolimus at 1 mg in 0.8 mL per ingestible device. Animals in Group 4 received intra-cecally an ingestible device containing tacrolimus at 2 mg in 0.8 mL per ingestible device. Animals in Group 5 received intra-cecally an ingestible device containing tacrolimus at 4 mg in 0.8 mL per ingestible device. To control for potential confounding effects of the surgery, all groups fast on Day −11 at least 24 hr before being subjected to anesthesia followed by surgical placements of a cecal port by a veterinary surgeon at Day −10. All animals were fasted for at least 12 hr prior to dosing on Day 1. Animals were dosed via either intra-cecal dosing (IC) or oral dosing (PO) at Day 1 (between […].). […]
Approximately 200˜400 mg of rectal content were collected, if available, with a fecal swab (Copan Diagnostics Nylon Flocked Dry Swabs, 502CS01). The fecal swab was pre-weighed and weighed after collection in the collection tube (Sterile Tube and Cap No Media, PFPM913S), and the sample weight was recorded. […]
For tissue necropsy, small intestine fluid and cecal fluid were collected separately from all the animals into two separate square plastic bottles, and stored at −20° C. The length and diameter of the cecum and the colon was measured from one animal in each group and recorded for reference. […] All samples were weighed, and the tissue sample weights were recorded. […] Around 3 grams of the total punched sample were collected into a pre-weighed 15-mL conical tube, and the tissue weight was recorded. […]

[2] = Pharmacokinetic study of oral vs intra-cecal administration of tacrolimus (Example 13); assay type: in vivo, Yorkshire-Cross farm swine; conditions: female, Yorkshire-Cross
Excerpt: as §1

[3] = tested on: cytokines involved in the JAK/STAT signaling pathway; conditions: PO or IC administration; 1 h and 3 h post-treatment

Structure (SMILES)	Cmax ([1]; in vivo, 0.09 mg/kg, Route PO, Dose (mg · kg) 0.09)	concentration at 12 h ([1]; in vivo, po, Trough (12 hr))	concentration at 12 h ([1]; whole blood, other: oral and intra-cecal (all groups), all groups (FIGS. 87-89 and Table 29), read-out: blood trough concentrations)	Cmax ([2]; pig, blood, Route PO, Dosage 0.09 mg/kg)	AUC(0-t) ([2]; pig, in vivo, po, 0.09 mg/kg)	Ratio Tissue(mean) (ng/g)/Trough(12 hr)(ng/mL) ([2]; pig, in vivo, po, 0.09 mg/kg)	Ratio Tissue(mean) (ng/g)/Trough(12 hr)(ng/mL) ([2]; swine, in vivo, po, 0.09 mg/kg)	IL-6 expression in plasma [3]
C=CC[C@@H]1/C=C(\C)C[C@H](C)C[C@H](OC)[C@H]2O[C@@](O)(C(=O)C(=O)N3CCCC[C@H]3C(=O)O[C@H](/C(C)=C/[C@@H]3CC[C@@H](O)[C@H](OC)C3)[C@H](C)[C@@H](O)CC1=O)[C@H](C)C[C@@H]2OC [tacrolimus]	3.53 ± 3.84 ng/mL	9.57 ± 0.291 ng/mL	< 10 ng/mL	3.53 ± 3.84 ng/mL	16.8 ± 3.64 ng·h/mL	0	0	
C[C@@H]1CCN(C(=O)CC#N)C[C@@H]1N(C)c1ncnc2[nH]ccc12 [tofacitinib citrate]								inhibition of IL-6 expression was observed
